Experimental data from US20260240958A1, “REPRESSOR FUSION PROTEIN SYSTEMS” (Scribe Therapeutics Inc., priority 2023, published 2026).

What was measured:
human PCSK9 locus [1] = test: Secreted PCSK9 dose response (IC50, IC90, Emax) in primary human hepatocytes treated with LNPs; format: cell-based; settings: day 5
Method: PCSK9 knockdown in primary human hepatocytes, provided an experimental basis for lipofection of gRNA comprising one of the four top editing targeting sequences (Table 59) into PHH cells for assessment of PCSK9 secretion and mRNA reduction. Dose response curves were generated from two lots of PHH cells with three rounds of triplicate wells for each condition. The highest tested dose, 2400 ng/well total encapsulated RNA, was used to measure mRNA expression changes between treated and naïve cells via RNA-seq.
Two lots (lot #271 and lot #31) of primary human hepatocytes (Lonza Biologics) were plated at density of 65K cells/well. Twenty-four hours later, plates were stamped with the indicated total encapsulated RNA dose of single formulations ALC-0315 LNP (1:1 ratio, pre-incubated with human serum overnight) at the indicated dose in triplicate wells for each condition. Doses tested for each mRNA:gRNA pair (Table 60) were 2400, 800, 270, 90, 30, 10, 0.1, and 0.01 ng/well total encapsulated RNA. […]
Secreted PCSK9 levels in the media supernatant were analyzed using the BioLegend® ELISA MAX™ kit following the manufacturer's instructions.
(§1) The ability of pairs of mRNA:gRNA comprising scaffold 316 and an PCSK9-targeting sequence to reduce secretion of PCSK9 and PCSK9 mRNA reduction was assessed. […]

PCSK9 mRNA = PCSK9 mRNA RT-qPCR dose response (IC50, IC90, Emax) in primary human hepatocytes treated with LNPs; format: cell-based; settings: day 5
Method: Two lots (lot #271 and lot #31) of primary human hepatocytes (Lonza Biologics) were plated at density of 65K cells/well. Twenty-four hours later, plates were stamped with the indicated total encapsulated RNA dose of single formulations ALC-0315 LNP (1:1 ratio, pre-incubated with human serum overnight) at the indicated dose in triplicate wells for each condition. Doses tested for each mRNA:gRNA pair (Table 60) were 2400, 800, 270, 90, 30, 10, 0.1, and 0.01 ng/well total encapsulated RNA.
For rounds 1 and 2, cells were immediately lysed in 100 uL DNA RNA shield™ and stored at […] after the day 5 media collection.
Extracted mRNA was processed and analyzed by RT-qPCR. Measurement ofPCSK9 mRNA expression is performed using a single-step RT-qPCR approach. 50 uL lysate was used to extract total RNA using Zymo 96 RNA extraction kits. Total RNA was then reverse transcribed into cDNA and PCSK9 transcript quantified in reference to a GAPDH endogenous control by quantitative PCR using TaqMan probes. Percent change in mRNA was calculated by comparing to samples treated with a non-targeting sequence.
as §1

mouse PCSK9 locus = test: Intracellular PCSK9 staining by flow cytometry in Hepa1-6 cells lipofected with mRNA and PCSK9-targeting gRNA; format: cell-based
Method: Transfection of mRNA and gRNA into Hepa1-6 cells and intracellular PCSK9 staining were performed as described in Example 6. Briefly, each well of seeded Hepa1-6 cells was transfected with 300 ng of mRNA encoding LTRP5-ZIM3 or LTRP5-ADD-ZIM3 and 150 ng of PCSK9-targeting gRNA with spacer 27.88 or 27.94. Intracellular levels of PCSK9 protein were measured at various timepoints, up to day 53 post-transfection using an intracellular staining protocol as described earlier in Example 6. A non-targeting gRNA was used as an experimental control.
Seeded Hepa1-6 cells treated with the NATE™ inhibitor were lipofected with 300 ng of mRNA encoding dXR1 or LTRP1-ZIM3 (Table 36) and 150 ng of a PCSK9-targeting gRNA (Table 37). Seven different gRNAs with spacers spanning the promoter region of the mouse PCSK9 locus were tested, in addition to a sequence complementary to the human PCSK9 gene that served as the non-targeting control (Table 37). Cells were harvested at 6, 13, and 25 days after transfection to measure intracellular levels of the PCSK9 protein using an intracellular flow cytometry staining protocol. Briefly, cells were fixed using 4% paraformaldehyde in PBS, permeabilized, and stained using a mouse anti-PCSK9 primary antibody (R&D Systems), followed by a fluorescent goat anti-mouse IgG secondary antibody (Thermo Fisher). Fluorescence levels were measured using the Attune™ NxT flow cytometer, and data were analyzed using the FlowJo™ software. Cell populations were gated using the non-targeting gRNA as a negative control.
Seeded Hepa1-6 cells treated with the NATE™ inhibitor were lipofected with 300 ng of mRNA encoding LTRP1-ZIM3, LTRP5-ZIM3, catalytically-active CasX 491, or dCas9-ZNF10-DNMT3A/3L, and 150 ng of PCSK9-targeting gRNA (Table 37). Intracellular levels of PCSK9 protein were measured at day 7, 14, 21, 36, and 71 days post-transfection using an intracellular staining protocol as described for experiment #1.

human PCSK9 locus [2] = test: Secreted PCSK9 ELISA in Huh7 cells transfected with mRNA and gRNA; format: cell-based; settings: for normalized secreted PCSK9 level: days 6, 18, 36
Method: The following three human hepatocyte cancer cell lines were used in this experiment: HepG2 cells, Hep3B cells, and Huh7 cells. ~15,000 cells of each cell line were seeded in each well of a 96-well plate. The next day, seeded cells were transfected with mRNA encoding a catalytically-active CasX 676, dXR1, or LTRP5-ADD-ZIM3 and a gRNA with scaffold 316 and spacer targeting either the B2M or PCSK9 locus (see Table 12 for specific spacers and sequences). Media supernatant was harvested at 4 days post-transfection to assess level of PCSK9 secretion by ELISA, and levels of PCSK9 secretion were normalized to total cell count, as illustrated in FIGS. 2A-2C. Culturing of treated Huh7 cells continued, and media supernatant was harvested at 14 and 27 days post-transfection for measuring PCSK9 secretion by ELISA. As an additional experimental control, PCSK9 secretion was also measured in the media supernatant harvested from wells containing untreated, naïve cells.
To assess PCSK9 secretion, seeded Huh7 cells were transfected with mRNA encoding a catalytically-active CasX 676, dXR1, or LTRP5-ADD-ZIM3 and a gRNA with scaffold 316 and a spacer targeting either the B2M or PCSK9 locus. Media supernatant was harvested at 6, 18, and 36 days post-transfection to assess level of PCSK9 secretion by ELISA. Levels of PCSK9 secretion were normalized to total cell count. As an additional control, PCSK9 secretion was also measured in the media supernatant harvested from wells containing untreated, naïve cells.

B2M gene = test: B2M reactivation by DNMT1 inhibitor 5-azadC in transfected HEK293T cells cultured for 58 days; format: cell-based, human; settings: HEK293T transfected with construct + B2M-targeting gRNA; 0 to 20 μM 5-azadC
Text: LTRP configuration 5 containing the ZIM3-KRAB domain, which was generated as described in Example 1, and CasX variant 491 were used in this experiment. A B2M-targeting gRNA with scaffold 174 containing spacer 7.37 (SEQ ID NO: 1904) or a non-targeting gRNA containing spacer 0.0 (SEQ ID NO: 1906) were used in this experiment.

TG-06-154: NHP-conserved TSS-proximal TTC spacer targeting the human PCSK9 locus (Table 40) (guide AGGGUGUGGGUGCUUGACGC; spacer within gRNA, v1 profile: 2'-OMe and phosphorothioate on first and last three gRNA nucleotides, further chemistry not given here)
potency in reducing secreted PCSK9 protein (human PCSK9 locus [1]): the most potent LTRP spacer
potency in reducing PCSK9 mRNA levels (PCSK9 mRNA): the most potent LTRP spacer

dXR1: dCasX fused to ZIM3-KRAB; protein SEQ ID NO 2008
degree of PCSK9 repression compared with LTRP1-ZIM3 (mouse PCSK9 locus; day 6, e.g. spacers 27.92 and 27.100): the degree of repression was less substantial when paired with certain spacers
persistence of PCSK9 repression (mouse PCSK9 locus; days 6, 13, 25): transient repression
repression of PCSK9 secretion relative to naïve control at day 4 (human PCSK9 locus [2]; Huh7, spacer 6.138, days 4, 14, 27): initial strong repression at day 4, this repressive effect was transient
normalized secreted PCSK9 level (human PCSK9 locus [2]; Huh7, spacer 6.138): transient repression
knockdown of PCSK9 secretion (normalized to total cell count) (human PCSK9 locus [2]; Huh7 compared with HepG2 and Hep3B cells, 4 days post-transfection): most efficient knockdown of PCSK9 secretion

Nc1ncn([C@H]2C[C@H](O)[C@@H](CO)O2)c(=O)n1 [5-azadC, 5-aza-2′-deoxycytidine]
reactivation of the B2M gene upon 5-azadC treatment (B2M gene): resulted in a reactivation of the B2Mgene

spacer 27.94: gRNA spacer targeting the mouse PCSK9 locus, SEQ ID NO 2014 (guide CCCCUCUUAAUCCCCACUCC; listed as RNA, chemistry not given here)
durability of PCSK9 repression (mouse PCSK9 locus; paired with LTRP5-ZIM3 or LTRP5-ADD-ZIM3 mRNA, day 53): more durable repression than use of spacer 27.88

TG-06-352: spacer targeting human PCSK9, positioned beyond the 1100 bp threshold window (guide UCCCUCACCAAUUACCCCUC; spacer within gRNA, v1 profile: 2'-OMe and phosphorothioate on first and last three gRNA nucleotides, further chemistry not given here)
normalized secreted PCSK9 level (human PCSK9 locus [2]; Huh7, spacer paired with LTRP5-ADD-ZIM3, compared with spacer 6.1 paired with CasX 676 and controls): effective repression
